Laboratory results published in patent US11325899B2, “Benzofurane and benzothiophene derivatives as PGE2 receptor modulators” (IDORSIA PHARMACEUTICALS LTD, priority 2017, dated 2022).

Experiments:
Type in all cases: cell-based
PTGER2 (EP2) = biological target: T1, PTGER2 (EP2) (Homo sapiens, UniProt P43116); assay: hEP2 b-arrestin assay (PathHunter HEK 293 PTGER2 b-arrestin cells); conditions: antagonistic activity, beta-arrestin assay; read-out: hEP2 b-arr IC50
T1 construct: host or cells: HEK 293 (PathHunter PTGER2 b-arrestin cell line)
Outline: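 PathHunter HEK293 cells with ProLink-tagged EP2 and EA-β-arrestin 2 preincubated 15 min at 37 °C with compound (10 μM-2 nM or 1 μM-0.2 nM), then stimulated 120 min with 5 μM PGE2 (EC80). β-gal complementation read by chemiluminescence; IC50 from duplicate dose-response versus DMSO.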

PTGER4 (EP4) = biological target: T2, PTGER4 (EP4) (Homo sapiens, UniProt P35408); assay: hEP4 b-arrestin assay (PathHunter HEK 293 PTGER4 b-arrestin cells); conditions: antagonistic activity, beta-arrestin assay; read-out: hEP4 b-arr IC50
T2 construct: host or cells: HEK 293 (PathHunter PTGER4 b-arrestin cell line)
Outline: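 PathHunter HEK 293 cells expressing ProLink-tagged human EP4 and EA-β-arrestin 2, seeded 24 h before. Compounds (10 μM–2 nM or 1 μM–0.2 nM) preincubated 15 min at 37 °C, then 20 nM PGE2 (EC80) for 120 min at 37 °C. β-gal complementation luminescence read; IC50 from duplicate dose-response curves versus DMSO control.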

EP4 receptor = biological target: T3, EP4 receptor (Homo sapiens, UniProt P35408); assay: hEP4 cAMP assay (BT549 breast cancer cells, HTRF cAMP, PGE2 stimulation); conditions: antagonistic activity, PGE2 6 nM (EC80)
T3 construct: BT549 breast cancer cells, express high endogenous EP4 levels and very low EP2 levels; host or cells: BT549 breast cancer cells
Outline: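 BT549 cells, with endogenous EP4 and very low EP2, were preincubated 45 min at room temperature with compound in HBSS/HEPES/BSA buffer with 2 mM IBMX. They were then stimulated 30 min with 6 nM PGE2 (EC80). cAMP was measured by HTRF competitive immunoassay against a calibrator; IC50 from duplicate dose-response as % of DMSO control.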

T1 sequence (P43116 whole entry): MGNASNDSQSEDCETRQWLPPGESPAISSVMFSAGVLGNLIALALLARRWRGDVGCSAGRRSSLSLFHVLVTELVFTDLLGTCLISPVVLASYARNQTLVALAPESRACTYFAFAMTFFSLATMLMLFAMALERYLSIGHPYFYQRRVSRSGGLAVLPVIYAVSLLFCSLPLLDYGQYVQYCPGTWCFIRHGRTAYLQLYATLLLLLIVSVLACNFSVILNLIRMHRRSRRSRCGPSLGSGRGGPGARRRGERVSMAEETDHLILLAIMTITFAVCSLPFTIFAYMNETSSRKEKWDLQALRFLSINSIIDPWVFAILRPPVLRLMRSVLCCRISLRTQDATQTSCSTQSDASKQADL
T3 sequence (P35408 whole entry): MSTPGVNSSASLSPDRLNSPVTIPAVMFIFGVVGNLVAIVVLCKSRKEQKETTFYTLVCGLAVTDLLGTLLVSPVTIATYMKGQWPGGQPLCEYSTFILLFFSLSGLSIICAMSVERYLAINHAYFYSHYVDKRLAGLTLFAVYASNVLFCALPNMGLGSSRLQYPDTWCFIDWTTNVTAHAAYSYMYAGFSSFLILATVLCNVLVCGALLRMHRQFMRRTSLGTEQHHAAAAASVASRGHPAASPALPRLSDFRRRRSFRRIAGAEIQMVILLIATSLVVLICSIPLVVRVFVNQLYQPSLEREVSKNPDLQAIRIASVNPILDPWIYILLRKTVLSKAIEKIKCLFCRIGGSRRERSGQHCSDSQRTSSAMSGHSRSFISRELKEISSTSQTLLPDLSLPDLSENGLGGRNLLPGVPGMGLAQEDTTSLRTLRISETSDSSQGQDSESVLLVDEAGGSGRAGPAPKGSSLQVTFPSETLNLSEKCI
T2 sequence (P35408 whole entry): as above

SMILES | IC50 (PTGER2 (EP2)) [nM] | IC50 (PTGER4 (EP4)) [nM] | IC50 (EP4 receptor) [nM]
CCCSc1cc(-c2cc(NCCc3c(C)sc4ccccc34)ncn2)ccc1C(=O)O [Example 88, 4-{6-[2-(2-Methyl-benzo[b]thiophen-3-yl)-ethylamino]-pyrimidin-4-yl}-2-propylsulfanyl-benzoic acid] | 21 | 1030 | 695
Cc1sc2c(C)cc(F)cc2c1CCNc1cc(-c2cc(C(F)(F)F)c(C(=O)O)s2)ncn1 [Example 46, 5-{6-[2-(5-Fluoro-2,7-dimethyl-benzo[b]thiophen-3-yl)-ethylamino]-pyrimidin-4-yl}-3-trifluoromethyl-thiophene-2-carboxylic acid] | 46 | 93 | 30
CCOc1cc(-c2cc(NCCc3c(C)sc4c(C)ccc(Cl)c34)ncn2)sc1C(=O)O [Example 29, 5-{6-[2-(4-Chloro-2,7-dimethyl-benzo[b]thiophen-3-yl)-ethylamino]-pyrimidin-4-yl}-3-ethoxy-thiophene-2-carboxylic acid] | 14 | 25 | 9
CCOc1cc(-c2cc(NCCc3c(C)sc4c(C)ccc(Cl)c34)ncn2)ccc1C(=O)O [Example 66, 4-{6-[2-(4-Chloro-2,7-dimethyl-benzo[b]thiophen-3-yl)-ethylamino]-pyrimidin-4-yl}-2-ethoxy-benzoic acid] | 27 | 407 | 607
COc1cc(-c2cc(NCCc3c(C)sc4c(OC)ccc(Cl)c34)ncn2)ccc1C(=O)O [Example 40, 4-{6-[2-(4-Chloro-7-methoxy-2-methyl-benzo[b]thiophen-3-yl)-ethylamino]-pyrimidin-4-yl}-2-methoxy-benzoic acid] | 48 | 680 | 433
CCOc1cc(-c2cc(NCCc3c(C#N)sc4c(OC)cccc34)ncn2)ccc1C(=O)O [Example 54, 4-{6-[2-(2-Cyano-7-methoxy-benzo[b]thiophen-3-yl)-ethylamino]-pyrimidin-4-yl}-2-ethoxy-benzoic acid] | 194 | 60 | 47
Cc1cc(-c2cc(NCCc3c(C)oc4c(C)cc(Cl)cc34)ncn2)sc1C(=O)O [Example 4, 5-{6-[2-(5-Chloro-2,7-dimethyl-benzofuran-3-yl)-ethylamino]-pyrimidin-4-yl}-3-methyl-thiophene-2-carboxylic acid] | 11 | 262 | 394
CSc1cc(-c2cc(NCCc3c(C)oc4c(C)cc(F)cc34)ncn2)ccc1C(=O)O [Example 16, 4-{6-[2-(5-Fluoro-2,7-dimethyl-benzofuran-3-yl)-ethylamino]-pyrimidin-4-yl}-2-methylsulfanyl-benzoic acid] | 13 | 391 | 189
CCOc1cc(-c2cc(NCCc3c(C)oc4c(OC)cc(Cl)cc34)ncn2)ccc1C(=O)O [Example 70, 4-{6-[2-(5-Chloro-7-methoxy-2-methyl-benzofuran-3-yl)-ethylamino]-pyrimidin-4-yl}-2-ethoxy-benzoic acid] | 37 | 394 | 985
CCOc1cc(-c2cc(NCCc3c(C)sc4c(OC)ccc(F)c34)ncn2)ccc1C(=O)O [Example 55, 2-Ethoxy-4-{6-[2-(4-fluoro-7-methoxy-2-methyl-benzo[b]thiophen-3-yl)-ethylamino]-pyrimidin-4-yl}-benzoic acid] | 15 | 117 | 138
Cc1sc2c(C)cc(F)cc2c1CCNc1cc(-c2cc3c(C(=O)O)cccc3[nH]2)ncn1 [Example 82, 2-{6-[2-(5-Fluoro-2,7-dimethyl-benzo[b]thiophen-3-yl)-ethylamino]-pyrimidin-4-yl}-1H-indole-4-carboxylic acid] | 13 | 155 | 138
COc1cc(Cl)cc2c(CCNc3cc(-c4ccc(C(=O)O)c(OC5CC5)c4)ncn3)c(C)oc12 [Example 83, 4-{6-[2-(5-Chloro-7-methoxy-2-methyl-benzofuran-3-yl)-ethylamino]-pyrimidin-4-yl}-2-cyclopropoxy-benzoic acid] | 22 | 101 | 111
CCOc1cc(-c2cc(NCCc3c(C)sc4c(OC)ccc(Cl)c34)ncn2)sc1C(=O)O [Example 30, 5-{6-[2-(4-Chloro-7-methoxy-2-methyl-benzo[b]thiophen-3-yl)-ethylamino]-pyrimidin-4-yl}-3-ethoxy-thiophene-2-carboxylic acid] | 10 | 18 | 11
CCc1cc(-c2cc(NCCc3c(C)sc4c(C)cc(F)cc34)ncn2)cc(C)c1CC(=O)O [Example 194, (2-Ethyl-4-{6-[2-(5-fluoro-2,7-dimethyl-benzo[b]thiophen-3-yl)-ethylamino]-pyrimidin-4-yl}-6-methyl-phenyl)-acetic acid] | 47 | 96 | 71
CCOc1cc(-c2cc(NCCc3c(C)sc4c(C)cc(F)cc34)ncn2)sc1CC(=O)O [Example 52, (3-Ethoxy-5-{6-[2-(5-fluoro-2,7-dimethyl-benzo[b]thiophen-3-yl)-ethylamino]-pyrimidin-4-yl}-thiophen-2-yl)-acetic acid] | 46 | 133 | 231
Cc1cc(-c2cc(NCCc3c(C)oc4c(C)cc(F)cc34)ncn2)sc1C(=O)O [Example 2, 5-{6-[2-(5-Fluoro-2,7-dimethyl-benzofuran-3-yl)-ethylamino]-pyrimidin-4-yl}-3-methyl-thiophene-2-carboxylic acid] | 25 | 189 | 117
CCOc1cc(-c2cc(NCCc3c(C)oc4c(C)cc(F)cc34)ncn2)ccc1C(=O)O [Example 69, 2-Ethoxy-4-{6-[2-(5-fluoro-2,7-dimethyl-benzofuran-3-yl)-ethylamino]-pyrimidin-4-yl}-benzoic acid] | 24 | 668 | 760
CCCc1cc(-c2cc(NCCc3c(C)sc4c(C)cc(F)cc34)ncn2)ccc1C(=O)O [Example 45, 4-{6-[2-(5-Fluoro-2,7-dimethyl-benzo[b]thiophen-3-yl)-ethylamino]-pyrimidin-4-yl}-2-propyl-benzoic acid] | 20 | 57 | 147

Further lines, results first:

IC50 (PTGER2 (EP2)) [nM] | IC50 (PTGER4 (EP4)) [nM] | IC50 (EP4 receptor) [nM] | SMILES
7 | 958 | 1030 | CCOc1cc(-c2cc(NCCc3c(C)oc4c(Cl)cc(Cl)cc34)ncn2)ccc1C(=O)O [Example 71, 4-{6-[2-(5,7-Dichloro-2-methyl-benzofuran-3-yl)-ethylamino]-pyrimidin-4-yl}-2-ethoxy-benzoic acid]
4 | 111 | 48 | Cc1sc2c(C)cc(F)cc2c1CCNc1cc(-c2ccc(C(=O)O)c(OC3CC3)c2)ncn1 [Example 195, 2-Cyclopropoxy-4-{6-[2-(5-fluoro-2,7-dimethyl-benzo[b]thiophen-3-yl)-ethylamino]-pyrimidin-4-yl}-benzoic acid]
10 | 807 | 989 | CSc1cc(-c2cc(NCCc3c(C)sc4c(C)cccc34)ncn2)cc(F)c1C(=O)O [Example 47, 4-{6-[2-(2,7-Dimethyl-benzo[b]thiophen-3-yl)-ethylamino]-pyrimidin-4-yl}-2-fluoro-6-methylsulfanyl-benzoic acid]
10 | 1030 | 1140 | CCCSc1cc(-c2cc(NCCc3c(C)oc4ccccc34)ncn2)ccc1C(=O)O [Example 89, 4-{6-[2-(2-Methyl-benzofuran-3-yl)-ethylamino]-pyrimidin-4-yl}-2-propylsulfanyl-benzoic acid]
6 | 168 | 134 | COc1ccc(Cl)c2c(CCNc3cc(-c4ccc(C(=O)O)c(SC)c4)ncn3)c(C)sc12 [Example 15, 4-{6-[2-(4-Chloro-7-methoxy-2-methyl-benzo[b]thiophen-3-yl)-ethylamino]-pyrimidin-4-yl}-2-methylsulfanyl-benzoic acid]
8 | 4300 | 1160 | CCOc1cc(-c2cc(NCCc3c(Cl)sc4ccccc34)ncn2)ccc1C(=O)O [Example 75, 4-{6-[2-(2-chloro-benzo[b]thiophen-3-yl)-ethylamino]-pyrimidin-4-yl}-2-ethoxy-benzoic acid]
9 | 34 | 44 | CCOc1cc(-c2cc(NCCc3c(C#N)sc4c(C)cc(F)cc34)ncn2)ccc1C(=O)O [Example 53, 4-{6-[2-(2-Cyano-5-fluoro-7-methyl-benzo[b]thiophen-3-yl)-ethylamino]-pyrimidin-4-yl}-2-ethoxy-benzoic acid]
3 | 2250 | 1590 | CCOc1cc(-c2cc(NCCc3c(C)sc4ccccc34)ncn2)ccc1C(=O)O [Example 72, 2-Ethoxy-4-{6-[2-(2-methyl-benzo[b]thiophen-3-yl)-ethylamino]-pyrimidin-4-yl}-benzoic acid]
